Where two headings read alike, the source gives them in different places.

The test system of one data set is α-adrenergic receptors. To be noted: cited from earlier work.
Data set [1] has as its system coronary occlusion in the rat. Put plainly: Anti-ischemic and anti-hypertensive activity: coronary occlusion in the anesthetized rat (elevation of the T wave of the electrocardiogram, arterial pressure). Format: in vivo, male albino rat of the Sprague-Dawley strain. To be noted: Rattus norvegicus, iv. The text has this: The cardiac anti-ischemic activity of compounds manifests itself by their capacity to oppose the elevation of the T wave of the electrocardiogram, induced by a coronary occlusion in the rat. Continuous monitoring of the arterial pressure also enables to reveal the anti-hypertensive effects. The animal used for the test is a male albino rat of the Sprague-Dawley strain, weighing 220 to 280 g. On the day of the experiment, the animal is anesthetized by intraperitoneal administration of pentobarbital (60 mg/kg), then placed under endotracheal intubation. A ligature system is fitted around the descending left anterior coronary artery according to the procedure of Johnston et el. (Can. J. Physiol. Pharmacol., 61 (1983), 1340-1353). After closing the thorax, three electrodes are arranged on the body of the animal ("V4" thoracic derivation), in order to continuously record the shape of the electrocardiogram signal (in particular the T wave). Catheters are introduced into the right carotid artery and the right jugular vein to measure the arterial pressure and to administer intravenously the compound tested or the vehicle solution. Four 45 second coronary occlusions are performed, separated by episodes of reperfusion of 30, 35 and 30 minutes respectively. The compound to be studied or the vehicle are administered intravenously in bolus, 30 minutes before occlusion 3. The T electrocardiographic signal and the arterial pressure are continuously measured during the entire experiment.
The effects of the compounds according to the invention are quantified by comparing the amplitude of the elevation of the T wave at occlusions 3 and 4 (that is 30 minutes and 60 minutes after administration) with its value at occlusion 2 (that is before administration).
the second column indicates the dose of compound administered, expressed in mole/kg;
the third and the fourth columns indicate the anti-ischemic effect caused by administering the compound tested. The anti-ischemic effect represents the reduction in the elevation of the T wave caused by coronary occlusions 3 and 4, expressed in % with respect to occlusion 2, before administration of the compound (ΔT3 and ΔT4 respectively);
the fifth and sixth columns indicate the anti-hypertensive effect caused by administration of the compound tested. The anti-hypertensive effect is expressed as the maximum lowering of arterial pressure, measured a) between 5 and 30 minutes, and b) between 30 and 60 minutes after intravenous injection of the compound tested (ΔPa and ΔPb respectively). This lowering is expressed in % with respect to the value measured before injection.

Data set [2] concerns presynaptic α2 -adrenergic receptors. Put plainly: Inhibition of the contraction of the electrically stimulated guinea pig ileum (presynaptic α2-agonist activity). To be noted: guinea pig ileum longitudinal muscle strips, electrical stimulation. The text has this:
Longitudinal muscle strips attached to an isometric strain gauge are suspended in Tyrode's solution and are stretched under a tension of 1 g (G. M. Drew, Brit. J. Pharmacol. 64, (1978), 293-300; M. Andrejak et al., Naunyn-Schmiedeberg's Arch. Pharmacol. 314, (1980), 83-87).
Electrical stimulation of the parasympathetic nerves associated with the ileum fragments causes a contraction of the muscle. This contraction is reduced in the presence of a presynaptic α2 -agonist and the magnitude by which the contraction is reduced depends on the concentration of the agonist used. This effect is antagonised by the simultaneous presence of an α2 -antagonist such as alpha-yohimbine.
The IC30 concentration (in mole/l) that reduces by 30% the intensity of the contraction of the muscle is determined.

Data set [3] deals with T1, postsynaptic α1 -adrenergic receptor (Rattus norvegicus, UniProt P23944).
T1 construct: isolated aorta of the rat; from tissue; host or cells: rat isolated aorta
T1 sequence (P23944 1-561): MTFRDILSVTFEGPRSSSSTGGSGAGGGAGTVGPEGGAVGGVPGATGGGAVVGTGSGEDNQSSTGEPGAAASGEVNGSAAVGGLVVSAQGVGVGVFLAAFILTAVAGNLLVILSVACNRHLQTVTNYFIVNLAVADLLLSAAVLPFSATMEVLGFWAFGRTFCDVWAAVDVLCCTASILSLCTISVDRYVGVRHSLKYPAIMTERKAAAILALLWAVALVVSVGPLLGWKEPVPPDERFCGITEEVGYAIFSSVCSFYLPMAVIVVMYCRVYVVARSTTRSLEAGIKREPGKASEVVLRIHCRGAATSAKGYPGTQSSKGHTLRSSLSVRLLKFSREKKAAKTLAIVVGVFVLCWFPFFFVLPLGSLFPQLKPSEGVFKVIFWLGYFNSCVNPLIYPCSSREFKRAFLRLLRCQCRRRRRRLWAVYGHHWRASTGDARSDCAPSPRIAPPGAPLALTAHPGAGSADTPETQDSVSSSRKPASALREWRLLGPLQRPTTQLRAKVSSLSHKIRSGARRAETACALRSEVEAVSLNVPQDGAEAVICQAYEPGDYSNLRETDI
Put plainly: Postsynaptic α1-antagonist activity: inhibition of norepinephrine-induced contraction of the isolated aorta of the rat. To be noted: read-out: ED30 (concentration which causes 30% inhibition of the contraction induced by norepinephrine). How it is done:
A non selective α-agonist substance such as norepinephrine induces a sustained contraction of the isolated aorta of the rat (J. M. Van Rossum Arch. Int. Pharmacodyn. 143, (1963), 299-330). This contraction can be inhibited by α1 -adrenergic blocking substances such as prazosin. In this test, a control contraction is carried out with norepinephrine at 3.2×10^-8 mole/l. After washing and stabilizing the preparation, the compound to be tested is added to the bath. Norepinephrine is added 5 minutes after the compound tested, and inhibition of the contraction induced by norepinephrine is measured. Next, inhibition of the contraction induced by norepinephrine is evaluated a second and third time in the presence of increasing concentrations of the compound tested.

The subject of a further data set is male NMRI mice. Put plainly: Toxicity, Irwin's test. Format: in vivo. To be noted: intraperitoneal. How it is done:
The toxicity of the compounds of the invention has been determined in male NMRI mice by means of Irwin's test (S. Irwin, Psychopharmacologia (Berl.), 13, (1968), 222-257).
Progressive doses of the product studied are administered intraperitoneally to groups of three mice until a lethal dose is reached (dose causing the death of two out of three animals in 48 hours). It follows from this Table that the compounds of the invention are not very toxic.

Setting [4] is: 0.5 h, read-out: ΔPa (maximum lowering of arterial pressure).
[5] abbreviates: 0.5 h, read-out: ΔT3 (anti-ischemic effect: change in elevation of the T wave, occlusion 3 vs occlusion 2).
The mark [6] stands for this setting: 1 h, read-out: ΔPb (maximum lowering of arterial pressure).
[7] abbreviates: 1 h, read-out: ΔT4 (anti-ischemic effect: change in elevation of the T wave, occlusion 4 vs occlusion 2).

As to `CC1(c2c[nH]cn2)CCCc2ccccc21` (stereo not drawn) [4-(1,2,3,4-tetrahydro-1-methyl-1-naphthalenyl)-1H-imidazole], the “affinity towards α-adrenergic receptors, in words” value in the data set on α-adrenergic receptors is reported as “slight affinity”.

In the case of `Cl.Oc1cccc2c1CCCC2c1c[nH]cn1` (stereo not drawn) [Compound F, 5,6,7,8-tetrahydro-5-(1H-imidazol-4-yl)-1-naphthalenol hydrochloride], the change in vivo at 3 µmol/kg in data set [1] (setting [4]) was -32%; in data set [1] (setting [5]), -64%; in data set [1] (setting [6]), -36%; in data set [1] (setting [7]) it was -59%. Also, the “IC30 (concentration that reduces by 30% the intensity of the contraction of the muscle)” value in data set [2] worked out at 0.0037 µM. The IC30 in data set [3] worked out at 0.23 µM. In the data set on male NMRI mice, the “Lethal dose (dose causing the death of two out of three animals in 48 hours)” value (“Lethal dose” below) is on record as 214.3 mg/kg.

Take `Cc1ccc2c(c1)CCCC2c1c[nH]cn1` (stereo not drawn) [Compound G, 4-(1,2,3,4-tetrahydro-6-methyl-1-naphthalenyl)-1H-imidazole]: the change in vivo at 3 µmol/kg in data set [1] (setting [4]) is -22%; in data set [1] (setting [5]), -24%; in data set [1] (setting [6]) it was -14%; in data set [1] (setting [7]) it was -16%. In addition, the “IC30 (concentration that reduces by 30% the intensity of the contraction of the muscle)” value in data set [2] is 0.03 µM. Moreover, the IC30 in data set [3] amounted to 0.072 µM. In the data set with male NMRI mice, the “Lethal dose” value was 118.9 mg/kg.

As to `Cl.Oc1ccc2c(c1)CCC2c1c[nH]cn1` (stereo not drawn) [Compound H, 2,3-dihydro-1-(1H-imidazol-4-yl)-1H-indene-5-ol hydrochloride], the change in vivo at 3 µmol/kg was -23% in data set [1] (setting [4]), -48% in data set [1] (setting [5]), -19% in data set [1] (setting [6]) and -55% in data set [1] (setting [7]). The “IC30 (concentration that reduces by 30% the intensity of the contraction of the muscle)” value in data set [2] came to 0.036 µM. Besides, in data set [3], the IC30 worked out at 0.21 µM. The “Lethal dose” value in the data set with male NMRI mice worked out at 236.7 mg/kg.

On to `COc1cccc2c1C(c1c[nH]cn1)CCC2` (stereo not drawn) [Compound I, 4-(1,2,3,4-tetrahydro-8-methoxy-1-naphthalenyl)-1H-imidazole], for which the change in vivo at 1 µmol/kg is -26% in data set [1] (setting [4]), -37% in data set [1] (setting [5]), -16% in data set [1] (setting [6]) and -57% in data set [1] (setting [7]). Further, the “IC30 (concentration that reduces by 30% the intensity of the contraction of the muscle)” value in data set [2] is 8 µM. The IC30 in data set [3] amounted to 1.8 µM. Besides, the “Lethal dose” value with male NMRI mice is 228.3 mg/kg.

In the case of `COc1cc2c(cc1OC)C(c1c[nH]cn1)CCC2` (stereo not drawn) [Compound J, 4-(1,2,3,4-tetrahydro-6,7-dimethoxy-1-naphthalenyl)-1H-imidazole], the change in vivo at 1 µmol/kg was -23% in data set [1] (setting [4]), -31% in data set [1] (setting [5]), -16% in data set [1] (setting [6]) and -29% in data set [1] (setting [7]). The “IC30 (concentration that reduces by 30% the intensity of the contraction of the muscle)” value in data set [2] is 0.13 µM. Besides, in data set [3], the IC30 is 2.9 µM. The “Lethal dose” value in the data set on male NMRI mice is 258.3 mg/kg.

Values taken from patent US5658938A, “Substituted 1H-imidazoles” (U C B S.A., priority 1994, dated 1997).
